The source of these data is US20050282863A1, “Novel-N substituted dihydrobenzothiepino, dihydrobenzoxepino and tetrahydro benzocyclohepta indoles as selective estrogen receptor modulators” (Council of Scientific & Industrial Research, priority 2004, published 2005).

One series concerns adult female rats. Kind of series: Post-coital antifertility efficacy in adult female rats. It counts as in vivo, rat. The following applies: daily dose 10 mg/kg, oral, days 1-7 post-coitum. From the text:
Adult female rats are caged overnight with coeval males of proven fertility and their vaginal smears are checked on the following morning. The day of presence of spermatozoa in the vaginal smear is taken as day 1 of pregnancy. Mated rats are isolated and randomized into various treatment groups and treated orally with the compound of invention or the vehicle on days 1-7/1-5 post-coitum. Animals of all the groups are autopsied on day 10 post-coitum and number and status of corpora lutea and implantation sites in each rat are recorded. The compounds of the present invention are considered active if there is complete absence of implantations in the uterus of all rats, in comparison to presence of normal implantations in the uterus of rats of vehicle control group.

Series [1] relates to chick fetal bones in culture. The series can be described thus: Inhibition in PTH-induced resorption of 45Ca from chick fetal bones in culture (antiresorptive activity in vitro). Format: cell-based. Conditions: Gallus gallus, 96 h, 100 μM; PTH-induced 45Ca resorption, 96 h culture; read-out: T/C ratio. As to the method: 5 μl of each concentration are used for evaluation of antiresorptive activity in vitro. In control experiments, 5 μl of appropriate solvent is used in lieu of the test compound. Femur bones are isolated from chick embryos on day 11 post-ovulation. The adhering soft connective tissue is completely removed. Each femur bone is then placed in a drop of phosphate buffered saline (PBS) and is transferred to BGJb culture medium containing ^45CaCl2 and incubated for 2 h. Labeled femur bones are washed 2-3 times with PBS and transferred to BGJb medium containing parathyroid hormone and cultured for 96 h in the presence or absence of the compound of invention or the vehicle in BGJb medium. Contralateral femur of each fetus serves as corresponding control. Culture medium with the respective treatment in each well is changed after 48 h. On termination of the culture at 96 h, bones are transferred to 0.1 N HCl for 24 h. Radioactivity due to ^45Ca in the spent medium collected at 48 and 96 h of culture and HCl extract at 96 h of culture is quantified by Liquid Scintillation Spectrophotometer in 10 ml of the scintillation fluid. Bone resorbing activity is expressed as percentage of ^45Ca released into the culture medium and the effect of the compound of invention as percent of the corresponding contra-lateral control or T/C ratio as shown below: [formula]
Appropriate solvents are selected from solvents like water, physiological saline, phosphate buffered saline, phosphate buffer, DMSO alone or in a suitable combination thereof.

Another series relates to MCF-7 cells. Kind of series: Antiproliferative/cytotoxic activity in cultured MCF-7 cells (SRB assay). It counts as cell-based. The following applies: Homo sapiens, MCF7, 48 h, read-out: LC50, Test-4; MCF-7, 48 h. The procedure: The procedure is based on the following methods: New calorimetric assay for anticancer drug screening, Skehan et al., J Natn Cancer Inst, 82,1107, 1990 and Feasibility of a high-flux anticancer drug screen using a diverse panel of cultured human tumor cell lines, J Natn Cancer Inst, 83,757, 1991.
A fully confluent flask of MCF-7 cells in trypsinized and 10^4 cells/well are plated in a 96 welled flat bottomed plate in 200 μl Minimum Essential Medium (MEM), pH 7.4 and allowed to attach for 24 h at 37° C. in a humidified CO2 incubator. Subsequently, the compound of invention dissolved in DMSO or ethanol is added at a specified concentration and further incubated for 48 h as before. The cells are then fixed in 50 μl cold 50% TCA and incubated for 1 h at 4° C. The supernatant is discarded and the plate is washed five times with deionized water and air-dried. 100 μl of 0.4% (w/v) Sulforhodamine B (SRB) in 1% acetic acid is added to each well and incubated at room temperature for 30 minutes. Unbound SRB is removed by five washes with chilled 1% acetic acid and the plate is air-dried. 200 μl of unbuffered 10 mM Tris base is added to solublize the bound stain for 5 minutes at room temperature and O.D. is read at 560 nm in a plate reader. The graph is plotted between O.D. and concentration and LC50 is calculated with respect to tamoxifen, which is used as a positive control.

Series [2] has as its system immature ovariectomized rats. Kind of series: Estrogen agonistic activity: increase in uterine weight in immature ovariectomized rats. It counts as in vivo, rat. Conditions: Rattus norvegicus, 72 h, daily dose 10 mg/kg, 3 days; percent of ovariectomized + vehicle group. The procedure: Twenty-one-day-old immature female rats are bilaterally ovariectomized under light ether anaesthesia and, after post-operative rest for 7 days, are randomized into different treatment groups. Each rat receives the compound of the invention once daily for 3 consecutive days on days 28-30 of age. A separate group of animals receiving only the vehicle for similar duration serves as control. A autopsy 24 h after the last treatment on day 31 of age, vaginal smear of each rat is taken and uterus is carefully exised, gently blotted, weighed and fixed for histology and histomorphometry using image analysis. Premature opening of vagina, cornification of vaginal epitelium, increase in uterine fresh weight, total uterine and endometrial area and uterine luminal epithelial cell height are taken as parameters for evaluation of estrogen agonistic activity in comparision to rats of vehicle control group.

In series [3] the test system is immature ovariectomized rats. Kind of series: Estrogen antagonistic activity: inhibition in 17α-ethynylestradiol induced uterine weight gain in immature ovariectomized rats. Conditions: Rattus norvegicus, 72 h; daily dose 10 mg/kg with 0.02 mg/kg 17-alfa-ethynylestradiol, 3 days; read-out: Percent inhibition in 17α-ethynylestradiol induced uterine weight gain. It counts as in vivo, rat. The procedure:
Twenty-one-day-old immature female rats are bilaterally ovariectomized under light ether anaesthesia and after post-operative rest for 7 days, are randomized into different treatment groups. Each rat receives the compounds of the invention and 0.02 mg/kg dose of 17-alfa-ethynylestradiol in 10% ethanol-distilled water once daily for 3 consecutive days on days 28-30 of age. A separate group of animals receiving only 17-alfa-ethynylestradiol (0.02 mg/kg) in 10% ethanol-distilled water for similar duration are used for comparison. At autopsy on day 31 of age, vaginal smear of each rat is taken and uterus is carefully excised, gently blotted, weighed and fixed for histology and histomorphometry using image analysis. Inhibition in 17-alfa-ethynylestradiol-induced premature opening of vagina, cornification of vaginal epithelium, increase in uterine fresh weight, total uterine and endometrial area and uterine luminal epithelial cell height are taken as parameters for evaluation of estrogen antagonistic activity.

The next series concerns the target T1, estrogen receptors (Rattus norvegicus, UniProt P06211).
T1 construct: Aliquot of uterine cytosol (200 μl; 2 uteri per ml) prepared in TEA buffer; from tissue; host or cells: uterine cytosol of immature estradiol-primed 20-21 day old rats
T1 sequence (P06211 1-600): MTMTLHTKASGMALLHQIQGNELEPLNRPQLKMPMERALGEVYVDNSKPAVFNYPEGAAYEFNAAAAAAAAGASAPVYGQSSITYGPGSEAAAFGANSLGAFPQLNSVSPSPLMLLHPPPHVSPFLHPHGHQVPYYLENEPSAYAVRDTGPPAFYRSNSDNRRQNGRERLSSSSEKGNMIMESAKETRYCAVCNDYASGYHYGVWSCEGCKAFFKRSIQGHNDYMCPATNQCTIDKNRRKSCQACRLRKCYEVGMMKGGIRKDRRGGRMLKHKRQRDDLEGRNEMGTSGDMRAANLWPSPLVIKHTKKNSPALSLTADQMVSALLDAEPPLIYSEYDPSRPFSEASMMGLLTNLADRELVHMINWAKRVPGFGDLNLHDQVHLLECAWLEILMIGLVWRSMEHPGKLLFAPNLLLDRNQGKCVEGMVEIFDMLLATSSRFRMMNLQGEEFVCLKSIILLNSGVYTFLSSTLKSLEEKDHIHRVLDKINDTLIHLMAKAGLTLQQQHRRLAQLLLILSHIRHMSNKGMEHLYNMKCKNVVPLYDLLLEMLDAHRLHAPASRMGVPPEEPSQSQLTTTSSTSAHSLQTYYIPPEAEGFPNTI
The series can be described thus: Relative binding affinity (RBA) to estrogen receptors, 3H-estradiol competition assay. On the set-up: key: % of 17-beta-estradiol binding affinity (estradiol = 100). The following applies: relative to 17-beta-estradiol (=100, percentage value); rat uterine cytosol, 3H-E2, 18 hrs at 4° C. The procedure:
The relative binding affinity (RBA) of the compounds for estrogen receptor is determined by competition assay, employing ^3H-estradiol (^3H-E2) as the radioligand. The test ligands and ^3H-E2 are incubated at 4° C. with cystol estrogen receptors obtained from uteri of immature estradoil-primed (1 μg/rat 24 h before autopsy) 20-21 days old rats. Aliquot of uterine cytosol (200 μl; 2 uteri per ml) prepared in TEA buffer (10 mM Tris, 1.5 mM EDTA, 0.02% sodium azide, pH 7.4) are incubated in duplicate with a fixed concentration of ^3H-E2 in the absence or presence of various concentrations of the competitor substance dissolved in 30 μl of the TEA buffer containing DMF as co-solvent (final concentration of DMF in the incubation mixture never exceeded 5%) for 18 hrs at 4° C. At the end of this period, dextran coated charcoal (5% Norit 0.5% dextran) suspension in 100 μl of TEA buffer is added to each tube, briefly vortexed and allowed to stand for 15 minutes at 4° C. The mixture is centrifuged at 800 g for 10 minutes and the supernatants counted for radioactivity in 10 ml of a dioxane-based scintillation fluid. RBA of the text compound is computed from a graph plotted between percent bound radioactivity verses log concentration of the test substance. […] This when multiplied with 100 gives the percentage value designated as RBA.

Molecule `c1ccc2c(c1)SCCc1c-2n(CCN2CCCCC2)c2ccccc12` [Example number 5, 12-[2-(Piperidine-1-yl)ethyl]-6,7-dihydro-12H-benzothiepino [5,4-b]indole] came in with a melting point of 118 °C. In addition, the “% Efficacy” value with adult female rats is “Inactive”.
`c1ccc2c(c1)SCCc1c-2n(CCCCCN2CCCCC2)c2ccccc12` [Example number 11, 12-[5-(Piperidine-1-yl)pentyl]-6,7-dihydro-12H-benzothiepino [5,4-b]indole]: the activity at 100 µM in series [1] turned out to be 77%. The CC50 in the series with MCF-7 cells came out at 8.3 µM. The responders at 10 mg/kg with adult female rats (Rattus norvegicus, 240 h) turned out to be 50%. For the same molecule, the change in vivo at 10 mg/kg in series [2] worked out at 50%. The inhibition in vivo at 10 mg/kg/day in series [3] was determined as 2%.
`Oc1ccc2c(c1)c1c(n2CCCCCN2CCCC2)-c2ccccc2SCC1` [Example number 30, 9-Hydroxy-12-[5-(pyrrolidine-1-yl)pentyl]-6,7-dihydro-12H-benzothiepino [5,4-b]indole]: the melting point fell in the range of 217 to 219 °C. Also, in the series on adult female rats, the “% Efficacy” value is reported as “Inactive”. In addition, the RBA at estrogen receptors is under 0.001.
Turning to `CCCCN(C)CCCCCn1c2c(c3cc(O)ccc31)CCSc1cc(O)ccc1-2` [Example number 37], the melting point was 134 to 136 °C. At estrogen receptors, the RBA turned out to be 0.36.
Turning to `c1ccc2c(c1)SCCc1c-2n(Cc2ccc(OCCCN3CCCCC3)cc2)c2ccccc12` [Example number 41, 12-[4-(3-Piperidin-1-yl-propyloxy)benzyl]-6,7-dihydro-12H-benzothiepino [5,4-b]indole], the melting point was in the range of 70 to 71 °C. In addition, the activity at 100 µM in series [1] turned out to be 108%. In the series with adult female rats, the “% Efficacy” value is recorded as “Inactive”. Besides, the change in vivo at 10 mg/kg in series [2] was 42.9%. Further, the inhibition in vivo at 10 mg/kg/day in series [3] was found to be 6.41%.
`c1ccc2c(c1)OCCc1c-2n(CCN2CCCCC2)c2ccccc12` [Example number 45, 12-[2-(Piperidine-1-yl)ethyl]-6,7-dihydro-12H-benzoxepino[5,4-b]indole] showed a melting point of 103 °C. In addition, in the series with adult female rats, the “% Efficacy” value is “Inactive”.
Molecule `c1ccc2c(c1)OCCc1c-2n(CCCN2CCCCC2)c2ccccc12` [Example number 47, 12-[3-(Piperidine-1-yl)propyl]-6,7-dihydro-12H-benzoxepino[5,4-b]indole] registered a melting point of 65 to 66 °C. For the same molecule, the “% Efficacy” value in the series with adult female rats is given as “Inactive”. Moreover, the change in vivo at 10 mg/kg in series [2] stood at 8.31%. Further, the inhibition in vivo at 10 mg/kg/day in series [3] amounted to 17.2%.
`c1ccc2c(c1)OCCc1c-2n(Cc2ccc(OCCN3CCCCC3)cc2)c2ccccc12` [Example number 56, 12-[4-(2-Piperidin-1-yl-ethoxy)benzyl]-6,7-dihydro-12H-benzoxepino[5,4-b]indole]: in series [1], the activity at 100 µM came out at 103%. The “% Efficacy” value in the series with adult female rats was “Inactive”. For the same molecule, in series [2], the change in vivo at 10 mg/kg was determined as 15.4%. Also, the inhibition in vivo at 10 mg/kg/day in series [3] was 12.8%.
Take `c1ccc2c(c1)OCCc1c-2n(Cc2ccc(OCCCN3CCCCC3)cc2)c2ccccc12` [Example number 58, 12-[4-(3-Piperidin-1-yl-propyloxy)benzyl]-6,7-dihydro-12H-benzoxepino[5,4-b]indole]: the melting point was in the range of 129 to 130 °C. Further, in series [1], the activity at 100 µM worked out at 98%. Also, the “% Efficacy” value with adult female rats is “Inactive”. In series [2], the change in vivo at 10 mg/kg is 7.85%. Further, in series [3], the inhibition in vivo at 10 mg/kg/day stood at 11.4%.

For orientation: melting point means the temperature of the solid-liquid transition.
